In paper PMC7696940, “Effects of Rationally Designed Physico-Chemical Variants of the Peptide PuroA on Biocidal Activity towards Bacterial and Mammalian Cells” (International Journal of Molecular Sciences, 2020):
Values after ≈ are worked out from the molar mass of the structure shown. Where no end group is shown, it is not given here.

Key:
NIH-3T3 cells = experiment: Cytotoxicity, MTT assay; format: cell-based, mouse; conditions: 24 h; for IC50 NIH-3T3: peptide up to 250 µg/mL, concentration causing 50% cell growth inhibition, mean of triplicate assays; for Cytotoxicity to NIH-3T3 mouse fibroblasts (in words): up to 250 µg/mL
Experimental: (§1) Cytotoxicity to human cervical carcinoma HeLa cells and mouse fibroblastic NIH-3T3 cells was determined using the MTT assay as per Scudiero et al. with minor modifications. The cells were maintained in Dulbecco’s Modified Eagle Medium (DMEM) with 10% foetal bovine serum (FBS) and 1% penicillin G in a humidified incubator (Heraeus Hera Cell incubator) at 37 °C with 5% CO2. They were seeded in 96-well microtiter plates at 1 × 10^4 cells/well and allowed to adhere for 24 h in the incubator. The medium was removed, and adherent cells were washed with PBS. Fresh media containing serially diluted peptides in PBS (final concentrations 4 to 250 µg/mL) were added and the cells incubated for 24 h. Cells without peptides were used as negative controls. Following incubations, the medium was removed, and adherent cells were washed with PBS. 150 µL of MTT (diluted to 0.33 mg/mL in DMEM) and the plates incubated for 3 h. The precipitated formazan was dissolved in 100 µL of DMSO and its absorbance measured at 570 nm. Cell viability was determined as: (OD570 nm peptide treated cells/(OD570 nm untreated cells) × 100. Positive cytotoxicity was defined as peptide concentration that causes 50% growth inhibition in a cell line (IC50). All tests were carried out in triplicate.

C. albicans FRR 5580 = format: cell-based, Candida albicans; conditions: PDB, overnight; mode of three independent experiments
Experimental: The assay was carried out as per Alfred et al.. Candida albicans (FRR 5580) was grown in potato dextrose broth (PDB; Difco-BD, Bergen County, NJ, USA) overnight at 30 °C with shaking (200 rpm) until exponential phase, then adjusted to 0.5 McFarland turbidity standard (approximately 1 × 10^6 cells/mL) and diluted 1:200 with PDB to 0.5 − 2 × 10^3 cells/mL. Peptides in 25 μL volumes were mixed with 75 μL of the yeast suspensions. The controls were included as above. The plates were incubated overnight and absorbance was recorded. All the tests were conducted in triplicate.

E. coli ATCC25922 = format: cell-based, Escherichia coli; conditions: MHB; for MIC E. coli, No NaCl: 0 mM NaCl; for MIC E. coli, No NaCl / MIC E. coli, With 50mM NaCl / MIC E. coli, With 100mM NaCl / MIC E. coli, With 150mM NaCl: triplicate, mode; for MIC E. coli ATCC25922: 37 °C overnight, A595, mode of three independent experiments
Experimental: (§2) The activity of peptides was determined against the Gram-positive Staphylococcus aureus (ATCC 25923), and the Gram-negative Escherichia coli (ATCC 25922) and Pseudomonas aeruginosa (ATCC 9027) bacteria. Selected peptides were also tested against two clinical isolates of methicillin-resistant Staphylococcus aureus (MRSA), M173525 and M180920, kindly provided by Dr P. B. Ward (Microbiology Department, Austin and Repatriation Medical Centre, Heidelberg West, Victoria, Australia). The Minimum inhibitory concentration (MIC) of peptides was determined by the microtitre broth dilution method, as described in Phillips et al.. Briefly, bacteria were grown in Mueller-Hinton Broth (MHB) at 37 °C overnight with shaking (200 rpm). The cultures were adjusted to 0.5 McFarland turbidity standard (approximately 1 × 10^8 colony forming units (CFU)/mL), then diluted 1:100 in MHB (1 × 10^6 CFU/mL). A total of 75 μL of these suspensions were mixed with 25 μL of peptide solutions (final concentrations 250 to 0.5 μg/mL) and the microtitre plates incubated overnight at 37 °C. Positive growth controls (inoculum and MHB, with no peptide) and sterility controls (0.01% glacial acetic) were also included. Post-incubations, the absorbance of cultures at 595 nm was measured using a microplate reader (POLARstar Omega, Germany). […] To evaluate salt sensitivity of peptides up to physiological levels (150 mM NaCl), overnight cultures of S. aureus and E. coli adjusted to 0.5 McFarland turbidity standard were diluted 1:100 in MHB containing 0, 50, 100 or 150 mM NaCl, and the MICs of peptides determined as above. All tests were conducted in triplicate. The results are shown as the mode of values obtained.

P. aeruginosa ATCC9027 = format: cell-based, Pseudomonas aeruginosa; conditions: MHB, 37 °C overnight, A595; mode of three independent experiments
Experimental: as §2

HeLa cells = format: cell-based, human; conditions: MTT, 24 h, peptide up to 250 µg/mL; concentration causing 50% cell growth inhibition; mean of triplicate assays
Experimental: as §1

S. aureus ATCC25923 = format: cell-based, Staphylococcus aureus; conditions: MHB; for MIC S. aureus, No NaCl: 0 mM NaCl; for MIC S. aureus, No NaCl / MIC S. aureus, With 50mM NaCl / MIC S. aureus, With 100mM NaCl / MIC S. aureus, With 150mM NaCl: triplicate, mode; for MIC S. aureus ATCC25923: 37 °C overnight, A595, mode of three independent experiments
Experimental: as §2

[1] = system: porcine trypsin and proteinase K; experiment: Proteases stability assay; format: in vitro ADME, porcine; Tritirachium album; conditions: 1000 µg peptide with 50 µg protease (20:1 w/w), porcine trypsin or proteinase K, PBS pH 7.4, 37 °C, 3 h; read-out activity of supernatant on E. coli and S. aureus; triplicate
Experimental: The effect of two well-studied proteases, porcine trypsin and proteinase K from Tritirachium album, on the activity of peptides was investigated as per Carmona et al.. Briefly, 1000 µg of a peptide was incubated with 50 µg of a protease (20:1 w/w) at 37 °C for 3 h in phosphate buffered saline PBS (pH 7.4). The enzyme activity was then terminated by heating (70 °C, 5 min) and the samples centrifuged at 12,000× g. The activity of the supernatant on E. coli and S. aureus was tested as above, in triplicate.

E. coli and S. aureus = experiment: Salt tolerance (MICs under 0-150 mM NaCl, summary); format: cell-based, Escherichia coli; Staphylococcus aureus; set-up: key: Up to 50 mM: no effects on antibacterial activity up to 50 mM NaCl but increase in the MICs for E. coli and S. aureus at 100 mM NaCl; Intolerant: not resistant to salt effects even at 50 mM NaCl; Up to 150 mM: no effects on antibacterial activity up to 150 mM NaCl; conditions: MICs for E. coli and S. aureus in MHB with 0, 50, 100 or 150 mM NaCl
Experimental: as §2

[2] = system: pBlueScript SK+ plasmid DNA; experiment: In vitro DNA-binding assay (gel retardation); conditions: 100 ng pBlueScript SK+, peptide 8-500 µg/mL, 1 h room temperature, 1% agarose
Experimental: The ability of peptides to bind to purified DNA (indicative of in vivo DNA binding potential) was tested by the modified gel retardation assay developed by Alfred et al.. The DNA of pBlueScript SK+ (100 ng) was incubated with peptides (to final concentrations of 8, 16, 32, 64, 125, 250 or 500 µg/mL) in 15 µL volumes made with sterile MilliQ water, the held at room temperature for 1h. Loading dye was added to each sample and the samples electrophoresed on 1% agarose gels. The gels were then immersed in ethidium bromide ([…]) then visualized and imaged

Molecule: CC(C)[C@@H]1NC(=O)[C@@H]2CCCN2C(=O)[C@H](Cc2ccccc2)NC(=O)CNC(=O)[C@H](CCCCN)NC(=O)[C@H](Cc2c[nH]c3ccccc23)NC(=O)[C@H](Cc2c[nH]c3ccccc23)NC(=O)[C@H](CCCCN)NC(=O)[C@H](Cc2c[nH]c3ccccc23)NC(=O)[C@H](Cc2c[nH]c3ccccc23)NC(=O)[C@H](CCCNC(=N)N)NC(=O)[C@H](Cc2c[nH]c3ccccc23)NC(=O)[C@H]([C@@H](C)O)NC1=O [Cyclic PuroA]
- IC50 NIH-3T3 (NIH-3T3 cells): >250 µg/mL
- Cytotoxicity to NIH-3T3 mouse fibroblasts (in words) (NIH-3T3 cells): no cytotoxicity
- MIC C. albicans FRR 5580 (C. albicans FRR 5580): >250 µg/mL
- MIC E. coli, No NaCl (E. coli ATCC25922): 250 µg/mL (≈ 135 µM)
- MIC E. coli, With 50mM NaCl (E. coli ATCC25922): > 250 µg/mL
- MIC E. coli, With 100mM NaCl (E. coli ATCC25922): > 250 µg/mL
- MIC E. coli, With 150mM NaCl (E. coli ATCC25922): > 250 µg/mL
- MIC E. coli ATCC25922 (E. coli ATCC25922): 250 µg/mL (≈ 135 µM)
- MIC P. aeruginosa ATCC9027 (P. aeruginosa ATCC9027): >250 µg/mL
- IC50 HeLa (HeLa cells): >250 µg/mL
- MIC S. aureus, No NaCl (S. aureus ATCC25923): 125 µg/mL (≈ 67.7 µM)
- MIC S. aureus, With 50mM NaCl (S. aureus ATCC25923): 250 µg/mL (≈ 135 µM)
- MIC S. aureus, With 100mM NaCl (S. aureus ATCC25923): 250 µg/mL (≈ 135 µM)
- MIC S. aureus, With 150mM NaCl (S. aureus ATCC25923): > 250 µg/mL
- MIC S. aureus ATCC25923 (S. aureus ATCC25923): 125 µg/mL (≈ 67.7 µM)
- Protease Stability [1]: Unstable
- Salt Tolerance (E. coli and S. aureus): Intolerant
- Binding to DNA in vitro (concentration inhibiting plasmid migration) [2]: ≥ 64 µg/mL
- Binding to DNA in vitro (concentration inhibiting plasmid migration) ([2]; listed as cyclized PuroA): 64 µg/mL

Molecule: RRRRWRWWRWWRR-NH2 [Peptide R8]
- IC50 NIH-3T3 (NIH-3T3 cells): >250 µg/mL
- Cytotoxicity to NIH-3T3 mouse fibroblasts (in words) (NIH-3T3 cells): no cytotoxicity
- MIC C. albicans FRR 5580 (C. albicans FRR 5580): 250 µg/mL
- MIC E. coli, No NaCl (E. coli ATCC25922): 64 µg/mL
- MIC E. coli, With 50mM NaCl (E. coli ATCC25922): 64 µg/mL
- MIC E. coli, With 100mM NaCl (E. coli ATCC25922): 64 µg/mL
- MIC E. coli, With 150mM NaCl (E. coli ATCC25922): 64 µg/mL
- MIC P. aeruginosa ATCC9027 (P. aeruginosa ATCC9027): 64 µg/mL
- IC50 HeLa (HeLa cells): 250 µg/mL
- MIC S. aureus, No NaCl (S. aureus ATCC25923): 64 µg/mL
- MIC S. aureus, With 50mM NaCl (S. aureus ATCC25923): 64 µg/mL
- MIC S. aureus, With 100mM NaCl (S. aureus ATCC25923): 64 µg/mL
- MIC S. aureus, With 150mM NaCl (S. aureus ATCC25923): 64 µg/mL
- Protease Stability [1]: Unstable
- Salt Tolerance (E. coli and S. aureus): Up to 150 mM
- Binding to DNA in vitro (concentration inhibiting plasmid migration) [2]: ≥ 64 µg/mL

Molecule: WRWWKWWK-NH2 [Peptide W8]
- IC50 NIH-3T3 (NIH-3T3 cells): >250 µg/mL
- Cytotoxicity to NIH-3T3 mouse fibroblasts (in words) (NIH-3T3 cells): no cytotoxicity
- MIC C. albicans FRR 5580 (C. albicans FRR 5580): 64 µg/mL
- MIC E. coli, No NaCl (E. coli ATCC25922): 4 µg/mL
- MIC E. coli, With 50mM NaCl (E. coli ATCC25922): 4 µg/mL
- MIC E. coli, With 100mM NaCl (E. coli ATCC25922): 4 µg/mL
- MIC E. coli, With 150mM NaCl (E. coli ATCC25922): 4 µg/mL
- MIC E. coli ATCC25922 (E. coli ATCC25922): 4 µg/mL
- MIC P. aeruginosa ATCC9027 (P. aeruginosa ATCC9027): 32 µg/mL
- IC50 HeLa (HeLa cells): 250 µg/mL
- MIC S. aureus, No NaCl (S. aureus ATCC25923): 8 µg/mL
- MIC S. aureus, With 50mM NaCl (S. aureus ATCC25923): 8 µg/mL
- MIC S. aureus, With 100mM NaCl (S. aureus ATCC25923): 8 µg/mL
- MIC S. aureus, With 150mM NaCl (S. aureus ATCC25923): 8 µg/mL
- MIC S. aureus ATCC25923 (S. aureus ATCC25923): 8 µg/mL
- Protease Stability [1]: Unstable
- Salt Tolerance (E. coli and S. aureus): Up to 150 mM
- Binding to DNA in vitro (concentration inhibiting plasmid migration) [2]: ≥ 16 µg/mL
